Assay: xn = mol fraction of the nth substance listed
Settings: for electrical conductivity: 101 kPa, frequency 2 MHz; for viscosity: 100 kPa

O=S(=O)([O-])C(F)(F)F.[Li+] + O=S(=O)([N-]S(=O)(=O)C(F)(F)F)C(F)(F)F.[Li+] + O
Settings	electrical conductivity, 318.1 K [S/m]	electrical conductivity, 323 K [S/m]	electrical conductivity, 328.1 K [S/m]	electrical conductivity, 333 K [S/m]	viscosity, 318.15 K [mPa·s]	viscosity, 328.15 K [mPa·s]
x1 = 0.04029, x2 = 0.1114	–	–	–	–	4.4	3.5
x1 = 0.07222, x2 = 0.1893	–	–	–	–	15.2	11.5
x1 = 0.09226, x2 = 0.2336	–	–	–	–	31.9	22.9
x1 = 0.1024, x2 = 0.2553	–	–	–	–	43.4	30.9
x1 = 0.1122, x2 = 0	–	–	–	–	2.27	1.85
x1 = 0.1122, x2 = 0.2745	–	–	–	–	63	43.6
x1 = 0.1783, x2 = 0	–	–	–	–	5.3	4.2
x1 = 0.2388, x2 = 0	–	–	–	–	11.1	8.6
x1 = 0.2541, x2 = 0	–	–	–	–	15.9	12.2
x1 = 0.2743, x2 = 0	–	–	–	–	23.9	18.1
x2 = 0.001799, x1 = 0.0005943	1.16	1.26	1.37	1.47	–	–
x2 = 0.005377, x1 = 0.001799	2.87	3.132	3.4	3.66	–	–
x2 = 0.00893, x1 = 0.003054	4.22	4.612	5.004	5.39	–	–
x2 = 0.01246, x1 = 0.004127	5.324	5.82	6.316	6.804	–	–
x2 = 0.01596, x1 = 0.005377	6.231	6.813	7.39	7.97	–	–
x2 = 0.01944, x1 = 0.006623	6.98	7.629	8.28	8.919	–	–
x2 = 0.05129, x1 = 0.0177	9.39	10.26	11.13	12	–	–
x2 = 0.08265, x1 = 0.02921	8.25	9.028	9.803	10.6	–	–
x2 = 0.112, x1 = 0.04029	6.46	7.08	7.716	8.339	–	–
x2 = 0.1395, x1 = 0.05129	4.845	5.343	5.846	6.348	–	–
x2 = 0.1654, x1 = 0.06203	3.58	3.97	4.37	4.78	–	–
x2 = 0.1898, x1 = 0.07238	2.631	2.943	3.27	3.59	–	–
x2 = 0.2128, x1 = 0.08265	1.932	2.18	2.439	2.706	–	–
x2 = 0.2345, x1 = 0.0927	1.418	1.616	1.824	2.041	–	–
x2 = 0.2551, x1 = 0.1024	1.04	1.2	1.36	–	–	–
x2 = 0.2745, x1 = 0.112	0.76	0.884	1.017	–	–	–
